For assay [1], the target named is T1, human indoleamine 2,3-dioxygenase 1 (hIDO1) (Homo sapiens, UniProt P14902).
T1 construct: up-regulate the expression of endogenous IDO1 under the induction of human IFN-γ; endogenous in cells; host or cells: HeLa cells stimulated with human IFN-γ
Kind of assay: Inhibitory activity test at cellular level: IFN-γ-induced HeLa cells, kynurenine colour reaction. The assay is classed as cell-based. Particulars: 50 ng/ml human IFN-γ, 200 μM L-tryptophan, 48 hours, each test compound 100 nM, read-out: hIDO1-cell base inhibition rate (%). The text has this:
The subject of this assay was to comprehensively evaluate different compounds on their enzymatic inhibitory activity in vitro and on cell models against human indoleamine 2,3-dioxygenase 1 (hIDO1).
In the present application, the inventors used Hela cells expressing IDO1 induced by IFN-γ as a model, to test the IDO1 inhibitory activity of the compounds at the cellular level.
HeLa cells are human cervical cancer cell lines, which can up-regulate the expression of endogenous IDO1 under the induction of human IFN-γ. By adding the substrate L-tryptophan to cell culture medium, the enzymatic catalysis product kynurenine in cell supernatant was detected. In this experiment, the cultured Hela cells were used and co-incubated with different concentrations of test compounds under stimulation of human IFN-γ for a specified period of time, and the color reaction method of enzyme product and p-dimethylaminobenzaldehyde was used to detect the effect on IDO enzyme activity of cells treated by the test compounds.
(1) Hela cells were inoculated into 96-well culture plates at an appropriate concentration (about 20,000 cells/well). […] The cells were continuously cultured for 48 hours before detection.
(2) 200 μL of the supernatant in the culture well was pipetted out, added with 40 μL of the pre-prepared 30% (w/v) trichloroacetic acid solution, and reacted at 65° C. for 20 minutes, and then centrifuged at 12000 rpm for 15 minutes.
(3) 100 μL of the supernatant after centrifugation was pipetted out, added into a 96-well flat bottom plate, then added with an equal volume of 2% p-dimethylaminobenzaldehyde in glacial acetic acid and mixed well, and stood at room temperature for 10 minutes.
(4) microplate reader (ELX800NB) was used to detect the absorbance value of each well, and the detection wavelength was 492 nm.
In addition, after the cell enzyme activity inhibition rates of test compounds with different concentration gradients were separately calculated, their cell enzyme activity half inhibition concentrations (EC50) were calculated by using EC50 calculator.
According to the above-mentioned experimental method, the compounds of the present application were subjected to IDO1 enzymatic evaluation at cytological level (the concentration of each test compound was all 100 nM).
According to the above-mentioned experimental method, the compound of the present application was subjected to hIDO1-cell base EC50 detection.

Assay [2] addresses T2, IDO in HeLa cell (Homo sapiens, UniProt P14902).
T2 construct: 50 ng/ml cytokine human IFN-γ and drugs with different concentrations; endogenous in cells; host or cells: HeLa cells stimulated with human IFN-γ
Kind of assay: Inhibition of IDO enzyme activity in HeLa cells by Chidamide in combination with IDO inhibitor. In kind it is cell-based. Particulars: Example 92, Table 6: chidamide and Example 87 alone and in combination, IFN-γ, 48 hours, FIG. 4. As to the method:
HeLa cells were digested by trypsin, collected and counted, then inoculated in a 96-well cell culture plate at 2×10^4 cells per well and cultured at 5% CO2 and 37° C. After the cells were inoculated overnight, the medium was replaced with 200 μM L-tryptophan phenol red-free DMEM medium, and 50 ng/ml cytokine human IFN-γ and drugs with different concentrations (administered according to the group and final concentration shown in FIG. 1) were added simultaneously, the vehicle control (DMSO) and cytokine-free and L-tryptophan negative control wells were set at the same time, and triplicate wells were set. After 48 hours of drug treatment, 200 μL of the supernatant from culture well was pipetted out, added with 40 μL of pre-prepared 30% (w/v) trichloroacetic acid solution, reacted at 65° C. for 20 minutes, and then centrifuged at 12000 rpm for 15 minutes. 100 μL of the supernatant was pipetted out and added into a 96-well flat bottom plate, then equal volume of 2% p-dimethylaminobenzaldehyde in glacial acetic acid was added and mixed well, and stood at room temperature for 10 minutes. The absorbance value of each well at wavelength of 492 nm was read with microplate reader (ELX800NB). After subtracting the cell-free medium OD492-BLK as a blank control from the reading of each well, the OD492-T of each dosing well with subtraction of the detection background and the […] of drug-free positive control well were obtained.
The relative enzyme activity inhibition rate against IDO of each dosing well cell was calculated according to the following formula: enzyme activity inhibition rate against IDO=(OD492−T0−OD492−T)/OD492−T0×100%

In assay [3] the target is T3, hERG potassium channel (Homo sapiens, UniProt Q12809).
T3 construct: expressed in transfected cells
Kind of assay: hERG inhibitory activity assay (patch clamp method), HEK293 cells stably expressing hERG. The assay is classed as cell-based. Particulars: whole-cell patch clamp, HEK293, 0.3-30 μM, room temperature; read-out: hERG inhibition EC50 value. The text has this:
Non-cardiac drugs may cause the prolongation of myocardial action potential duration by inhibiting the hERG (IKr) channel, increasing the possibility of life-threatening torsade de pointes (TdP) ventricular arrhythmia. In this experiment, HEK293 cell line without endogenous IKr current was used as host cell (this cell line was widely used in the detection of hERG) to evaluate the cardiotoxicity of Example 85 in patent CN108203438A and Example 87 of the present application.
(1) HEK293 cell line stably expressing hERG potassium channel was cultured in DMEM medium containing 10% fetal bovine serum and 0.8 mg/mL G418 under the condition of 37° C. and 5% CO2. […]
A capillary glass tube was drawn into a recording electrode with a microelectrode puller. […] Then, slow capacitance compensation was performed, and the membrane capacitance and series resistance were recorded. […]
When the hERG current of the whole-cell recording was stabilized, the drug was administered. […] The current detected for each cell in the compound-free extracellular fluid was used as its own control group. […]
[formula] and then the inhibition rate corresponding to each concentration was calculated
[formula] For each concentration, mean number and standard error were calculated, and the following equation was used to calculate the half inhibitory concentration of each compound: […]
(Block of hERG is tested as a sign of cardiac risk.)

In assay [4] the test system is CT-26 tumor. Kind of assay: Efficacy experiment on Balb/c mouse CT-26 tumor model. In kind it is in vivo. The conditions noted are these: Example 96, Table 10: chidamide and Example 87 alone and in combination; method similar to Example 93.

SMILES strings stand for the structures.

T1 sequence (P14902 whole entry): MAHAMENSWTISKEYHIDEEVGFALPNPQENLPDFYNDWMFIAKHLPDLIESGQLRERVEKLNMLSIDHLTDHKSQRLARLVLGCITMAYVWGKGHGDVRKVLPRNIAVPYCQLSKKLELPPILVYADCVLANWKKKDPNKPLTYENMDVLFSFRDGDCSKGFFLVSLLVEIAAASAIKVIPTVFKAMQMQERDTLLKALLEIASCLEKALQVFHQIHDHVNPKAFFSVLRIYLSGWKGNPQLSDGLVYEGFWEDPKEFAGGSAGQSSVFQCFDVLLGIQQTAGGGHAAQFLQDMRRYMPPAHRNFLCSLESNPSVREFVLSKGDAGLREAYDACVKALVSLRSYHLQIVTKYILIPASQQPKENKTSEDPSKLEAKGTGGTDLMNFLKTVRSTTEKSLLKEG
T2 sequence (P14902 whole entry): as above
T3 sequence (Q12809 whole entry): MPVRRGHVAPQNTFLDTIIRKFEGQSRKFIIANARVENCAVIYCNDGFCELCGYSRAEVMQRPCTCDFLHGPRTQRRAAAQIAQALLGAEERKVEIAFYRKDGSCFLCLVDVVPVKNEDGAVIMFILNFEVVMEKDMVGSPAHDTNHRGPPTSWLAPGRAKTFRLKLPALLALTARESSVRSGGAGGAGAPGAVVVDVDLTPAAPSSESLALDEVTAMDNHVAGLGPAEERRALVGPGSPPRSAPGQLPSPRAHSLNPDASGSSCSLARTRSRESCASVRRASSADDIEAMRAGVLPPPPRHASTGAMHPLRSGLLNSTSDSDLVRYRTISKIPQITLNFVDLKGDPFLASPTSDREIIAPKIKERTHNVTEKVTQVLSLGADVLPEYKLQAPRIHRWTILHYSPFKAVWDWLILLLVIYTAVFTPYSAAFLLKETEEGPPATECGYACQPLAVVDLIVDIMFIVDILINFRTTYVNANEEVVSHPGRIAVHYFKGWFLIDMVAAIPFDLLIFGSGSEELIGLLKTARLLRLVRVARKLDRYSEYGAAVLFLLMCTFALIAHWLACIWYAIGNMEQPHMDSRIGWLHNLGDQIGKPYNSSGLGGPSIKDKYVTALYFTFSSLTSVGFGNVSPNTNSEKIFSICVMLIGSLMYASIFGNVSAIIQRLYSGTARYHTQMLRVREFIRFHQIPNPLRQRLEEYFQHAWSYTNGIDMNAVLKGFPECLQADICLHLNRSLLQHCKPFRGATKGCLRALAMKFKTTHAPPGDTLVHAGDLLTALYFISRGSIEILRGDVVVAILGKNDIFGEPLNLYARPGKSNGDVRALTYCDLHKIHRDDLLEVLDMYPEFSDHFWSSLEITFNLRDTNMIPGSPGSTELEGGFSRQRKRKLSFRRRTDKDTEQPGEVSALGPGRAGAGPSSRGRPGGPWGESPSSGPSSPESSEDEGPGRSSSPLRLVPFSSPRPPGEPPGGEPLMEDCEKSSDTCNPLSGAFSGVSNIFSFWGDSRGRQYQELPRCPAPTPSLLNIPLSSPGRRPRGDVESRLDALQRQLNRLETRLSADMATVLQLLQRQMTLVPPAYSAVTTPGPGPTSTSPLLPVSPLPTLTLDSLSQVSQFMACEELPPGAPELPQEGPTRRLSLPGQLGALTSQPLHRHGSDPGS

As a reminder, the inhibition is the relative decrease from the control value, in per cent. Usually EC50 stands for the concentration at which the effect is half-maximal. For the molecule `O=C(CNc1ccc2c(c1)OCO2)N1CCC(C(O)CC2c3c(F)cccc3-c3cncn32)CC1` (stereo not shown) [Example 87, 2-(benzo[d][1,3]dioxol-5-yl-amino)-1-(4-(2-(6-fluoro-5H-imidazo[5,1-a)isoindol-5-yl)-1-hydroxyethyl)piperidin-1-yl)ethyl-1-one], in assay [1], the inhibition at 0.1 µM was 23%. Moreover, the “Average inhibition rate (%) against IDO” value in assay [2] is on record as 20%. The concentration for a half-maximal effect (EC50) in assay [3] worked out at 4.6 µM. Besides, the “Relative tumor inhibition rate (%)” value in assay [4] stood at 45%.

The record behind these values is patent US12551478B2, “Quinoline derivative having indoleamine-2,3-dioxygenase inhibitory activity” (SHENZHEN CHIPSCREEN BIOSCIENCES CO., LTD., priority 2018, dated 2026).
